Literature values as cited in US20060110477A1, “Composition and method for supporting and promoting healthy sexual function and prevention and treatment of sexual dysfunction” (priority 2004, published 2006).

Biological target: rat cGMP-specific PDE5 (Rattus norvegicus, UniProt O54735)

relative potency against cGMP PDE5 (among the flavonols in the ethyl acetate fraction): most potent
IC50 ratio PDE4/PDE5 (selectivity between PDE isoforms): 196.2
SMILES: COc1cc(O)c(CC=C(C)C)c2oc(-c3ccc(O)cc3)c(O)c(=O)c12 [sophoflavescenol]
